Source: US8207293B2, “Peptides derived from maurocalcine used as vectors for intracellular addressing of molecules of interest” (Commissariat a l'Energie Atomique, priority 2004, dated 2012)

Key:
[1] = system: CA1 hippocampal neurons, HEK293 cells, L6 cells; assay: Cell penetration of biotinylated peptide/Strept-Cy3 complexes in various cell cultures, confocal microscopy of fixed cells; format: cell-based; conditions: 100 nM, 30 min, ambient temperature
Experimental: (§1) Soluble streptavidin-cyanin 3 and streptavidin-cyanin 5 (Strept-Cy^3 and Strept-Cy^5, AMERSHAM) were mixed with 4 molar equivalents of biotinylated maurocalcine (1 mM) or biotinylated maurocalcine-derived peptide, in phosphate buffer (PBS, in mM: 136 NaCl, 1.47 Na2HPO4, 2.6 KCl, 1 CaCl2, 0.5 MgCl2, pH 7.2), for 2 hours at 37° C. and in the dark.
The cells were incubated with maurocalcine and the derived peptides, biotinylated and complexed with streptavidin-cyanin 3 or with streptavidin-cyanin 5, at the final concentration of 100 nM in PBS, in the dark and at ambient temperature, for 30 minutes to 1 hour. […] The Alexa-488 and Cy3 or propidium iodide (PI) fluorescences were excited sequentially and then recorded. The Cy3 fluorescence was excited using a 543 nm helium-neon laser beam and the fluorescence emission was recorded between 554 nm and 625 nm. […]
The primary rat hippocampal neurons and the cells of the HEK293 line and the L6 line (before and after differentiation) are incubated for 30 min at ambient temperature, with 100 nM or 333 nM of maurocalcine-derived peptide, biotinylated and complexed with streptavidin-Cy3, or else 100 nM or 333 nM of MCab/Strept-Cy3, as a control. The cells are fixed and the fluorescence is observed by confocal microscopy.

HEK293 cells = assay: Cell penetration and subcellular distribution of complexes in HEK293 cells, confocal microscopy; format: cell-based, human; conditions: for cellular distribution of complexes: 333 nM
Experimental: as §1
The human embryonic kidney cells (HEK 293 line, ATCC) are divided before confluence, by treatment with trypsin (1%), and are maintained in DMEM medium (INVITROGEN) containing 10% of inactivated fetal calf serum (INVITROGEN) and 1% of penicillin/streptomycin (INVITROGEN), in a CO2 incubator (5%). The culture medium is changed every 2 days.
The cells were incubated with maurocalcine and the derived peptides, biotinylated and complexed with streptavidin-cyanin 3 or with streptavidin-cyanin 5, […], in the dark and at ambient temperature, for 30 minutes to 1 hour. After 3 washes in PBS, the cells are fixed at ambient temperature, in a paraformaldehyde solution (4%), for 10 min, in the dark, washed in PBS and incubated for one hour with FITC-conjugated concanavalin (MOLECULAR PROBES, 5 μg/ml) in order to label the plasma membrane, and TO-PRO-3 iodide (MOLECULAR PROBES, 1 μM) in order to label the nucleus. In order to label the cytoskeleton, the cells were fixed and permeabilized with ice-cold methanol, for 10 min, washed twice in PBS and incubated with a mouse anti-alpha-tubulin antibody (1:1000, SIGMA), for 2 hours. After two washes in PBS, the cells were incubated for one hour with an anti-mouse IgG secondary antibody conjugated to Alexa 488 (1:1000, MOLECULAR PROBES). The cultures were then mounted in Vectashield mounting medium (VECTOR LABORATORIES). Preparations were observed by laser scanning confocal microscopy, using a Leica TCS-SP2 control system. The Alexa-488 and Cy3 or propidium iodide (PI) fluorescences were excited sequentially and then recorded. The Cy3 fluorescence was excited using a 543 nm helium-neon laser beam and the fluorescence emission was recorded between 554 nm and 625 nm. The images were introduced into Adobe Photoshop 7.0.

live cells = assay: Flow cytometry analysis of cellular penetration at increasing extracellular KCl (membrane potential); format: cell-based; conditions: for mean fluorescence value: 100 nM complex, 1 hour
Experimental: The MCab-Strept-Cy^5 complexes were prepared in solutions containing various NaCl/KCl ratios (composition in mM: 145 to 5 NaCl, 5 to 145 KCl, 2.5 CaCl2, 1.2 MgCl2, 10 glucose, 10 HEPES, pH 7.4).
The cells were washed twice with the NaCl/KCl solution used to prepare the complexes, and then incubated with maurocalcine and the derived peptides, which are biotinylated and complexed with streptavidin-cyanin 3 (MCab-Strept-Cy^3 complexes), at the final concentration of 100 nM in the same NaCl/KCl solution, in the dark and at ambient temperature for 1 hour. After 2 washes in the same NaCl/KCl buffer, the cyanin 3 fluorescence was analyzed on live cells, using a flow cytometer (FACScalibur, BECTON DICKINSON). The data were recorded and analyzed using appropriate software (CellQuest, BD BIOSCIENCES). The live cells were sorted according to their size and their granulosity (forward/side scattering), over a total of 10 000 events.

## MCab/Strept-Cy3: biotinylated maurocalcine, complexed with cyanin-3-labeled streptavidin
[1]
  Cy3 labeling of cells (transduction): strong uniform labeling of the plasma membrane and of the cytoplasm of all the cells
HEK293 cells; 100 nM, 1 h, 4° C.
  entry into cells at decreased temperature: still penetrate into the cells
HEK293 cells; 100 nM, 1 h, amiloride 3 mM
  effect of amiloride on entry of the complex: no effect on the entry of the complex into the cells
HEK293 cells; 100 nM, 1 h, nystatin 50 μM
  effect of nystatin on entry of the complex: no effect on the entry of the complex into the cells
HEK293 cells; 2 hours of incubation
  cellular distribution of complexes: mainly present in the cytoplasm
HEK293 cells; between 4 hours and 24 hours of incubation
  cellular distribution of complexes: mainly perinuclear and colocalizes with the nucleus
Live cells; 5 mM KCl
  mean fluorescence value: 145
Live cells; 125 mM KCl
  mean fluorescence value: 40
Live cells; 145 mM KCl
  mean fluorescence value: 17
Live cells; fit y=y0+a×x
  decreasing slope a (linear regression of fluorescence vs KCl concentration): −0.72
  maximum fluorescence y0 (linear regression vs KCl concentration): 139.5
